Experimental data taken from US20130315981A1, “METHOD FOR INDUCING FAT LOSS IN MAMMALS” (The Trustees of Columbia University in the City of New York, priority 2010, published 2013).

Assays:
[1] = system: ATMs in perigonadal adipose tissue; assay: CL316,243 treatment of lean mice: ATM content in perigonadal adipose tissue; assay type: in vivo, C57BL/6J mice
Protocol: Ten 8-week-old C57BL/6J mice fed the standard pellet diet (see above) were injected intraperitoneally with 1 mg/kg of CL316,243 or saline twice (4 hours between each injection). Mice were sacrificed 14 hours after the second injection. Perigonadal adipose tissue was excised and samples were stored as described above.
Adipose tissue samples were fixed for 48 hours at room temperature in zinc-formalin fixative (Anatech Ltd.), incubated in 70% ethanol for 24 hours, and subsequently embedded in paraffin. […] For each individual adipose tissue depot, 5-10 different high-power fields from each of 3 different sections were analyzed. The total number of nuclei and the number of nuclei of F4/80-expressing cells were counted for each field. The fraction of F4/80-expressing cells for each sample was calculated as the sum of the number of nuclei of F4/80-expressing cells divided by the total number of nuclei in sections of a sample. Cross-sectional area was determined for each adipocyte in each field using image analysis software Image-Pro Plus (Media Cybernetics Inc.). For each mouse, 800-1000 adipocytes were counted. Adipocyte number was calculated from fat pad weight and adipocyte volume (48). […] For each individual adipose tissue depot, 10 different high-power fields from each of 3 different sections were analyzed. […]

[2] = system: perigonadal adipose tissue explants; assay: Lipolysis (FFA release) of perigonadal adipose tissue explants with isoproterenol; assay type: cell-based, C57BL/6J mice; design: dose or concentration left out as unconfirmed; conditions: explants from lean ad libitum-fed mice
Protocol: Perigonadal fat pads were surgically removed from high-fat-fed C57BL/6J mice (n=5/group), which were either ad libitum fed or were undergoing caloric restriction. Subsequently, they were washed several times with PBS. Tissue pieces (−100 mg total weight) were incubated in DMEM (Invitrogen) containing 2% fatty acid-free BSA (Sigma-Aldrich) at 37° C. Aliquots were collected after 120 minutes and investigated for FFA and glycerol content. FFA and glycerol were measured using the HR NEFA series (Wako Diagnostics) and the free glycerol determination kit (Sigma-Aldrich), respectively. We measured adipocyte numbers in parallel samples from weight- and fat-matched ad libitum-fed and calorically restricted mice.
(§1) Explant-conditioned media, plain media, or media containing recombinant MCP-1 (50 ng/ml) (PeproTech) were added into the lower chamber. To obtain explant-conditioned media, explants were isolated from lean 10-week-old C57BL/6J mice that were ad libitum fed or fasted for 24 hours. […] Explant FFA content was evaluated using the HR NEFA series (Wako Diagnostics). […] At the end of the incubation, cells were detected by a green fluorescent dye (CyQUANT dye) included in the assay. Fluorescence intensity was measured with the Infinite 500 (Tecan). Cell numbers were determined based on fluorescence readings and a standard curve.

[3] = system: stromal vascular cells (SVCs); assay: Co-culture of SVCs with adipose tissue with or without isoproterenol; assay type: cell-based, C57BL/6J mice
Protocol: RNA was isolated from SVCs using the QIAGEN RNeasy Minikit (QIAGEN) and used as template for cDNA synthesis using Superscript III reverse transcriptase (Invitrogen) and random hexamer primers. Quantitative RT-PCR assays were carried out using DNA Engine Opticon 2 system instruments (Bio-Rad) and PCR SYBR Green I QuantiTect Master Mix (QIAGEN). The mRNA expression of all genes reported is normalized to the cyclophilin B (Ppib) gene expression. Every reaction was performed in duplicate, and the data were analyzed with the 2-DDCT method (49). To isolate SVCs, perigonadal adipose tissue was isolated from high-fat diet-induced obese C57BL/6J male mice immediately after CO2 asphyxiation. Tissues were handled using sterile techniques and minced into fine (<10 mg) pieces. For SVC isolation, minced samples were placed in DMEM (Invitrogen) supplemented with 10 mg/ml BSA (Sigma-Aldrich). An LPS-depleted collagenase cocktail (Liberase 3; Roche Applied Science) at a concentration of 0.03 mg/ml was added to the tissue suspension, and the samples were incubated at 37° C. on an orbital shaker (200 g) for 45 minutes. Once digestion was complete, samples were passed through a sterile 250-mm nylon mesh (Sefar America Inc.). The suspension was centrifuged at 500 g for 5 minutes. The pelleted cells were collected as SVCS. The SVCS were resuspended in erythrocyte lysis buffer (BD Biosciences) and incubated at room temperature for 1 minute. SVCS were plated at a concentration of 650,000 cells/well on cell culture inserts with 1-mm pore size (BD). Each insert was placed in a well of a 12-well tissue culture plate (BD) containing 100 mg of finely minced adipose tissue. To isolate small intact pieces of adipose tissue for culture, perigonadal adipose tissue was remove from high-fat-fed obese C57BL/6J mice and minced to approximately 10-mg size pieces. SVCS were cocultured with adipose tissue pieces for 24 hours in DMEM containing 10% FBS, 1% penicillin, and 2% fatty acid-free BSA. Isoproterenol (Sigma-Aldrich) was added in selected wells at a concentration of 10 mmoles/1. The stromal vascular fraction was collected for gene expression or oil red 0 staining after 24 hours. SVCS were air-dried and fixed with zinc-formalin fixative (see above) for 10 minutes and stained oil red O as previously described (50).

[4] = system: bone marrow-derived macrophages (BMDMs); assay: Macrophage migration assay with explant-conditioned media; assay type: cell-based, C57BL/6J mice; conditions: explant-conditioned medium, isoproterenol-treated explants; comparable to MCP-1/CCL2 (50 ng/ml)
Description: Murine BMDMs were differentiated in vitro from bone marrow precursor cells. Briefly, bone marrow cells were flushed from femurs and tibias of 9-week-old C57BL/6J mice, washed in DMEM (Invitrogen), and grown for 7 days in Petri dishes containing DMEM with 10% FBS, 20% L929 cell-conditioned media, 5% horse serum, 1% glutamine, and 1% sodium pyruvate. On the seventh day, media were replaced with DMEM containing 10% FBS, 10% L929 cell-conditioned media, 5% horse serum, 1% glutamine, and 1% sodium pyruvate; macrophages were grown for 3 more days. Differentiation was confirmed by FACS analysis. BMDM migration was evaluated using the QCM chemotaxis […] 96-well cell migration assay (Millipore) according to the manufacturer's instructions.
as §1

SMILES: C[C@H](Cc1ccc2c(c1)OC(C(=O)[O-])(C(=O)[O-])O2)NC[C@H](O)c1cccc(Cl)c1.[Na+].[Na+] [CL316,243]
- increase of ATM content in perigonadal adipose tissue ([1]; lean C57BL/6J mice, 1 mg/kg intraperitoneally twice 4 hours apart, tissue 14 hours after final injection, vs control-treated mice): more than 5 fold
- inflammatory phenotype of adipose tissue (expression of inflammatory markers) ([1]; lean mice, CL316,243 vs vehicle, perigonadal adipose tissue): do not increase the inflammatory phenotype of adipose tissue

SMILES: CC(C)NCC(O)c1ccc(O)c(O)c1 (stereo not shown) [isoproterenol]
- lipolysis as release of FFA from explants [2]: increased lipolysis
- SVC gene expression or lipid accumulation ([3]; SVCs cultured in the absence of adipose tissue, 24 hours): no effect
- lipid accumulation within SVCs (oil red O) ([3]; coculture with adipose tissue plus isoproterenol): accumulation of lipid within SVCS
- Ccr2 gene expression in the SVC fraction ([3]; coculture with adipose tissue plus isoproterenol stimulation): induced Ccr2 gene expression
- program of adipocyte differentiation in SVCs (adiponectin, leptin, Pparg expression) ([3]; in the presence of adipose tissue): no activation of a program of adipocyte differentiation
- Adfp gene expression in SVCs ([3]; in the presence of adipose tissue, 24 hours): induced the expression of the gene Adfp
- Cd36 expression in SVCs ([3]; in the presence of adipose tissue, P=0.09): increased
- chemotactic activity of adipose tissue toward BMDMs [4]: proportional increase in the chemotactic activity
